Reference: paper PMC4391943, “Novel Epigallocatechin-3-Gallate (EGCG) Derivative as a New Therapeutic Strategy for Reducing Neuropathic Pain after Chronic Constriction Nerve Injury in Mice” (PLoS ONE, 2015)

Assay: Hepatic, renal and hematological function serum markers in treated mice
Assay type: in vivo, Balb/c
Conditions: for Hematocrit / Hemoglobin / Lymphocytes / Monocytes / Neutrophils / platelet count: Balb/c; for ALP (alkaline phosphatase), hepatic function / ALT (alanine transaminase), hepatic function / AST (aspartate transaminase), hepatic function / BUN (urea), renal function / Creatinin, renal function: Balb/c serum

Hematocrit (50 mg/Kg): 42.4 ± 2.2% | Hemoglobin (50 mg/Kg): 14.2 ± 0.8 g/dL | Lymphocytes (50 mg/Kg): 51.2 ± 13.9% | Monocytes (50 mg/Kg): 1.4 ± 0.1% | Neutrophils (50 mg/Kg): 32.0 ± 22.9% | platelet count (50 mg/Kg): 826 10^3/µL | ALP (alkaline phosphatase), hepatic function (50 mg/Kg): 97.2 ± 20.3 U/L | BUN (urea), renal function (50 mg/Kg): 21.9 ± 7.5 mg/dL | Creatinin, renal function (50 mg/Kg): 0.30 ± 0.1 mg/dL | Hematocrit (75 mg/Kg): 38.3 ± 2.8% | Hemoglobin (75 mg/Kg): 13.6 ± 0.3 g/dL | Lymphocytes (75 mg/Kg): 50.2 ± 7.5% | Monocytes (75 mg/Kg): 1.9 ± 1.4% | Neutrophils (75 mg/Kg): 30.7 ± 8.1% | platelet count (75 mg/Kg): 849 10^3/µL | ALP (alkaline phosphatase), hepatic function (75 mg/Kg): 86.5 ± 30.3 U/L | BUN (urea), renal function (75 mg/Kg): 21.1 ± 6.8 mg/dL | Creatinin, renal function (75 mg/Kg): 0.31 ± 0.1 mg/dL | hepatic, renal and hematological function serum markers vs control (daily doses of 50 and 75 mg/Kg (S2 Table)): no significant alteration
Structure (SMILES): O=C(Oc1ccc(-c2ccc(OC(=O)c3cc(O)c(O)c(O)c3)cc2)cc1)c1cc(O)c(O)c(O)c1 [Compound 30, 4,4′-Bis [(3,4,5-trihydroxybenzoyl)oxy]-1,1′-biphenyl]
ALT (alanine transaminase), hepatic function (50 mg/Kg): 210.3 ± 28.2 U/L | AST (aspartate transaminase), hepatic function (50 mg/Kg): 266.5 + 80.3 U/L | ALT (alanine transaminase), hepatic function (75 mg/Kg): 290.2 + 31 U/L | AST (aspartate transaminase), hepatic function (75 mg/Kg): 320.3 + 45.5 U/L
